Assay [1] addresses GST-tagged human ROCK1 catalytic domain 1-477 (Homo sapiens (Human), UniProt Q13464). The assay can be described thus: Inhibition of Rho-associated protein kinase isoform 1 (LANCE Ultra ULight-CREBtide FRET kinase assay). As to conditions: 30 μM was the highest concentration analyzed. It is filed as biochemical. Put shortly:
(§1)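 Baculovirus-expressed kinase phosphorylated ULight-CREBtide for 90 min at room temperature before the reaction was stopped with 10 mM EDTA. Phospho-substrate was detected by TR-FRET with 1 nM Europium-anti-phospho-CREB (Ser133) antibody after 60 min at room temperature.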
On the technique in general: TR-FRET usually uses a lanthanide donor and a delayed reading to cut background.

Assay [2] has as its target GST-tagged human ROCK2 catalytic domain 1-553 (Homo sapiens (Human), UniProt O75116). In words: Inhibition of Rho-associated protein kinase isoform 2 (LANCE Ultra ULight-CREBtide FRET kinase assay). As to conditions: for IC50: 30 μM was the highest concentration analyzed; for Selectivity for ROCK2 over ROCK1 (IC50 ROCK1 / IC50 ROCK2): selectivity ROCK2 vs ROCK1. It is filed as biochemical. Put shortly:
as §1

A value given as a limit tells only on which side of the number the result lay.

From patent US10112935B2, “Indazolyl thiadiazolamines and related compounds for inhibition of Rho-associated protein kinase and the treatment of disease” (Lycera Corporation, priority 2015, dated 2018) come the findings set out here.

What is called IC50 is the concentration needed to halve the response being measured. A lower IC50 goes with higher potency.

Sequence of GST-tagged human ROCK1 catalytic domain 1-477 (Q13464 1-477): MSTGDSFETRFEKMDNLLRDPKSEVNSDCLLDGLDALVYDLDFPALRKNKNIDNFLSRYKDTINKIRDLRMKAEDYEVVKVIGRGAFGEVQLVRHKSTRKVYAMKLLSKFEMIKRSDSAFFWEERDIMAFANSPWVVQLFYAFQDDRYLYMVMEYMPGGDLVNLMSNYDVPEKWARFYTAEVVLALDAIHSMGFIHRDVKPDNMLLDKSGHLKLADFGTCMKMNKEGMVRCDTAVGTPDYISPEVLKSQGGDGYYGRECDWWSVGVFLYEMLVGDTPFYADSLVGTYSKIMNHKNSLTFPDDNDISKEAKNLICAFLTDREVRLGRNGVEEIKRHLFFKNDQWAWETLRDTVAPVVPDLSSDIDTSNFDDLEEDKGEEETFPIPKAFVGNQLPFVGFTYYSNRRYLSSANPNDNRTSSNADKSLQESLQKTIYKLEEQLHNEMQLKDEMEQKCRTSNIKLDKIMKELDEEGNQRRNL
Sequence of GST-tagged human ROCK2 catalytic domain 1-553 (O75116 1-553): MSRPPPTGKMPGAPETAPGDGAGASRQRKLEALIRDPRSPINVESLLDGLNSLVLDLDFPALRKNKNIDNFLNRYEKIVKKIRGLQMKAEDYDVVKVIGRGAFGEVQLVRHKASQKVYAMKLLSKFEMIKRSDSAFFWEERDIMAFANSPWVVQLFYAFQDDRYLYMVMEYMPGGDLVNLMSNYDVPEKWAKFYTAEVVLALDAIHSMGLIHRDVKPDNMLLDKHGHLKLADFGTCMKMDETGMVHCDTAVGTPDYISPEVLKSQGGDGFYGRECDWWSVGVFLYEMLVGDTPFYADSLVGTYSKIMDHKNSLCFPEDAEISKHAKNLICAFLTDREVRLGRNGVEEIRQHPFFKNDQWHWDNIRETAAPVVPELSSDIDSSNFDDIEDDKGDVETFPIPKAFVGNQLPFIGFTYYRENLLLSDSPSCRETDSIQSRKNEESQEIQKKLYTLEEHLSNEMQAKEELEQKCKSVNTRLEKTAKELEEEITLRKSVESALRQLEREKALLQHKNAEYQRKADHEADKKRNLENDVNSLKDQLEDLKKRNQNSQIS

In assay [1], `Cn1c(C2CCOCC2)nc2c(-c3nnc(Nc4ccc5[nH]ncc5c4)s3)cccc21` [Example 56F] displayed a 50% inhibitory concentration (IC50) above 30 µM. Also, in assay [2], the half-inhibitory concentration (IC50) is below 1 µM and the “Selectivity for ROCK2 over ROCK1 (IC50 ROCK1 / IC50 ROCK2)” value (from here on “Selectivity … (IC50 ROCK1 / IC50 ROCK2)”) was above 100.
For `Cn1c(C2CC2)nc2c(-c3nnc(Nc4ccc5[nH]ncc5c4)s3)cccc21` [Example 56G] the same measures were above 30 µM, below 1 µM and above 100.
Turning to `Cn1cccc(-c2nnc(Nc3ccc4[nH]ncc4c3Cl)s2)c1=O.O=C(O)C(F)(F)F` [Example 56H], in assay [1], the half-maximal inhibitory concentration (IC50) is above 30 µM. In assay [2], the IC50 is below 1 µM and the “Selectivity … (IC50 ROCK1 / IC50 ROCK2)” value is recorded as above 100.
With `CCc1c(Nc2nnc(-c3cccc(NC(C)=O)c3)s2)ccc2[nH]ncc12` [Example 75C], the IC50 in assay [1] is below 1 µM. Also, in assay [2], the concentration for half-maximal inhibition (IC50) was below 1 µM and the “Selectivity … (IC50 ROCK1 / IC50 ROCK2)” value is reported as above 5.
Regarding `CN1CCN(C(=O)Nc2ccc(-c3nnc(Nc4ccc5[nH]ncc5c4Cl)s3)cc2)CC1` [Example 75D], the 50% inhibitory concentration (IC50) in assay [1] was below 1 µM. In assay [2], the IC50 was below 1 µM and the “Selectivity … (IC50 ROCK1 / IC50 ROCK2)” value is above 5.
With `Clc1c(Nc2nnc(-c3cccc4c3OCCO4)s2)ccc2[nH]ncc12` [Example 75E], the half-maximal inhibitory concentration (IC50) in assay [1] and in assay [2] was above 30 µM each time.
Compound `CC(C)(O)CNC(=O)c1cccc(-c2nnc(Nc3ccc4[nH]ncc4c3Cl)s2)c1` [Example 75F] displayed a concentration for half-maximal inhibition (IC50) in assay [1] of 1 to 15 µM. In assay [2], the half-maximal inhibitory concentration (IC50) was below 1 µM and the “Selectivity … (IC50 ROCK1 / IC50 ROCK2)” value is reported as above 5.
For `Cc1cccc(CNC(=O)c2cccc(-c3nnc(Nc4ccc5[nH]ncc5c4Cl)s3)c2)n1` [Example 75G] the same measures were below 1 µM, below 1 µM and below 5.
For `c1cc(-c2nnc(Nc3ccc4[nH]ncc4c3)s2)cc(N2CCNCC2)c1` [Example 75H], the IC50 in assay [1] was above 30 µM. In assay [2], the IC50 was in the range of 1 to 15 µM and the “Selectivity … (IC50 ROCK1 / IC50 ROCK2)” value was above 5.
For `Cn1cc(C(=O)Nc2cc(-c3nnc(Nc4ccc5[nH]ncc5c4)s3)ccn2)cn1` [Example 75I] the same measures were below 1 µM, below 1 µM and below 5.
Regarding `Cn1cc(C(=O)Nc2cccc(-c3nnc(Nc4ccc5[nH]nc(Cl)c5c4)s3)c2)cn1` [Example 75J], the IC50 in assay [1] and in assay [2] was above 30 µM throughout.
With `CNCc1ccc(C(=O)Nc2cccc(-c3nnc(Nc4ccc5[nH]ncc5c4)s3)c2)cn1` [Example 75K], in assay [1], the IC50 is below 1 µM. Besides, in assay [2], the IC50 is below 1 µM and the “Selectivity … (IC50 ROCK1 / IC50 ROCK2)” value is listed as above 5.
In assay [1], `CC(C)NC(=O)COc1cncc(-c2nnc(Nc3ccc4[nH]ncc4c3)s2)c1` [Example 75L] came in with a half-inhibitory concentration (IC50) above 30 µM. The “Selectivity … (IC50 ROCK1 / IC50 ROCK2)” value in assay [2] is recorded as above 75.
As to `O=C(Nc1cccc(-c2nnc(Nc3ccc4[nH]ncc4c3F)s2)c1)c1c[nH]cn1` [Example 75N], the half-inhibitory concentration (IC50) in assay [1] and in assay [2] was above 30 µM in each case.
As for `O=[N+]([O-])c1cccc(-c2nnc(Nc3ccc4[nH]ncc4c3)s2)c1` [Example 75O], the IC50 in assay [1] and in assay [2] was 1 to 15 µM each time.
With `CN(C)Cc1cc(-c2ncco2)cc(-c2nnc(Nc3ccc4[nH]ncc4c3Cl)s2)c1` [Example 75P], the concentration for half-maximal inhibition (IC50) in assay [1] fell in the range of 1 to 15 µM. For the same compound, in assay [2], the 50% inhibitory concentration (IC50) is below 1 µM and the “Selectivity … (IC50 ROCK1 / IC50 ROCK2)” value is reported as above 5.
For `CC1(C)CN=C(c2cccc(-c3nnc(Nc4ccc5[nH]ncc5c4Cl)s3)c2)O1` [Example 75Q], in that order: 1 to 15 µM, below 1 µM and above 5.
For `Cc1cccc(-c2cccc(-c3nnc(Nc4ccc5[nH]ncc5c4Cl)s3)c2)n1` [Example 75R], in that order: above 30 µM, below 1 µM and above 100.
For `CC(=O)Nc1cc(CC(=O)O)cc(-c2nnc(Nc3ccc4[nH]ncc4c3Cl)s2)c1` [Example 75S], in that order: below 1 µM, below 1 µM and above 5.
Regarding `CC(C)(C)c1cn2cccc(-c3nnc(Nc4ccc5[nH]ncc5c4Cl)s3)c2n1` [Example 75T], the IC50 in assay [1] and in assay [2] was above 30 µM each time.
`CN(c1nnc(-c2cccc(NC(=O)Cc3ccc(F)cc3)c2)s1)c1ccc2[nH]ncc2c1Cl` [Example 75U]: the IC50 in assay [1] and in assay [2] was above 30 µM each time.
With `Clc1c(Nc2nnc(-c3cccc4c3ncn4CCN3CCOCC3)s2)ccc2[nH]ncc12` [Example 75V], the IC50 in assay [1] and in assay [2] was above 30 µM each time.
In assay [1], `Nc1nc(-c2nnc(Nc3ccc4[nH]ncc4c3Cl)s2)c[nH]1` [Example 75W] yielded an IC50 below 1 µM. Moreover, in assay [2], the half-inhibitory concentration (IC50) was below 1 µM and the “Selectivity … (IC50 ROCK1 / IC50 ROCK2)” value was below 5.
In assay [1], `NCCS(=O)(=O)Nc1cccc(-c2nnc(Nc3ccc4[nH]ncc4c3)s2)c1` [Example A-1] returned a half-maximal inhibitory concentration (IC50) of 1 to 15 µM. In assay [2], the IC50 was 1 to 15 µM and the “Selectivity … (IC50 ROCK1 / IC50 ROCK2)” value is reported as below 5.
Consider `CC(C)NCC(=O)Nc1cncc(-c2nnc(Nc3ccc4[nH]ncc4c3)s2)c1` [Example A-2], for which the IC50 in assay [1] was 1 to 15 µM. For the same compound, in assay [2], the concentration for half-maximal inhibition (IC50) is below 1 µM and the “Selectivity … (IC50 ROCK1 / IC50 ROCK2)” value is above 5.
Turning to `CN(C)CC(=O)Nc1cncc(-c2nnc(Nc3ccc4[nH]ncc4c3)s2)c1` [Example A-3], the IC50 in assay [1] was 1 to 15 µM; in assay [2] it was below 1 µM. For the same compound, the “Selectivity … (IC50 ROCK1 / IC50 ROCK2)” value in assay [2] was below 5.
For `O=C(NCC(O)CO)c1cccc(-c2nnc(Nc3ccc4[nH]ncc4c3)s2)c1` (stereo not shown) [Example A-4] the same measures were 1 to 15 µM, 1 to 15 µM and below 5.
For `Cn1cc(C(=O)Nc2cc(-c3nnc(Nc4ccc5[nH]ncc5c4)s3)ccc2C(=O)O)cn1` [Example A-5], in that order: below 1 µM, below 1 µM and above 5.
For `c1cc(-c2nnco2)cc(-c2nnc(Nc3ccc4[nH]ncc4c3)s2)c1` [Example A-6] the same measures were above 30 µM, above 30 µM and below 5.
Turning to `CC(C)NC(=O)COc1cncc(-c2nnc(Nc3ccc4[nH]ncc4c3)s2)c1` [Example A-7], the IC50 in assay [1] is above 30 µM. In assay [2], the IC50 is below 1 µM and the “Selectivity … (IC50 ROCK1 / IC50 ROCK2)” value was above 50.
Consider `CCS(=O)(=O)Nc1cccc(-c2nnc(Nc3ccc4[nH]ncc4c3)s2)c1` [Example A-8], for which, in assay [1], the IC50 is above 30 µM. For the same compound, in assay [2], the IC50 is 1 to 15 µM and the “Selectivity … (IC50 ROCK1 / IC50 ROCK2)” value was above 5.
For `O=C(O)c1cccc(-c2nnc(Nc3ccc4[nH]ncc4c3)s2)c1` [Example A-9] the same measures were 15 to 30 µM, 1 to 15 µM and above 5.
For `CN(CC(O)CO)C(=O)c1cccc(-c2nnc(Nc3ccc4[nH]ncc4c3)s2)c1` (stereo not shown) [Example A-10], in that order: 15 to 30 µM, 1 to 15 µM and below 5.
For `Cn1cc(C(=O)Nc2cccc(-c3nnc(Nc4ccc5[nH]ncc5c4Cl)s3)c2)cn1` [Example A-11], in that order: above 30 µM, below 1 µM and above 100.
For `OCCN(c1ccc2[nH]ncc2c1)c1nnc(-c2cnccn2)s1` [Example A-12], in assay [1], the half-maximal inhibitory concentration (IC50) was above 30 µM. Besides, in assay [2], the IC50 was above 30 µM and the “Selectivity … (IC50 ROCK1 / IC50 ROCK2)” value is below 5.
With `Nc1cncc(-c2nnc(Nc3ccc4[nH]ncc4c3)s2)n1` [Example A-13], the IC50 in assay [1] is above 30 µM. In assay [2], the concentration for half-maximal inhibition (IC50) lay within 1 to 15 µM and the “Selectivity … (IC50 ROCK1 / IC50 ROCK2)” value is reported as above 5.
For `CCS(=O)(=O)Nc1cncc(-c2nnc(Nc3ccc4[nH]ncc4c3)s2)c1` [Example A-14] the same measures were 1 to 15 µM, 1 to 15 µM and above 5.
For `Cn1cnc2c(-c3nnc(Nc4ccc5[nH]ncc5c4)s3)cccc21` [Example A-15], in that order: below 1 µM, below 1 µM and below 5.
For `CCn1cc(C(=O)Nc2cccc(-c3nnc(Nc4ccc5[nH]ncc5c4)s3)c2)cn1` [Example A-16] the same measures were below 1 µM, below 1 µM and above 5.
`c1cc(-c2cn[nH]c2)cc(-c2nnc(Nc3ccc4[nH]ncc4c3)s2)c1` [Example A-17]: the IC50 in assay [1] is above 30 µM. Also, in assay [2], the half-maximal inhibitory concentration (IC50) was below 1 µM and the “Selectivity … (IC50 ROCK1 / IC50 ROCK2)” value is on record as above 100.
In the case of `CS(=O)(=O)Nc1cncc(-c2nnc(Nc3ccc4[nH]ncc4c3)s2)c1` [Example A-18], in assay [1], the IC50 lay within 1 to 15 µM. For the same compound, in assay [2], the half-inhibitory concentration (IC50) lay within 1 to 15 µM and the “Selectivity … (IC50 ROCK1 / IC50 ROCK2)” value is reported as below 5.
In turn, `CS(=O)(=O)Nc1cccc(-c2nnc(Nc3ccc4[nH]ncc4c3)s2)c1` [Example A-19] showed an IC50 in assay [1] above 30 µM. For the same compound, in assay [2], the IC50 is below 1 µM and the “Selectivity … (IC50 ROCK1 / IC50 ROCK2)” value is recorded as above 100.
For `O=C(Nc1cccc(-c2nnc(Nc3ccc4[nH]ncc4c3)s2)c1)c1cnn(CCO)c1` [Example A-20], in that order: above 30 µM, below 1 µM and above 100.
For `COc1cccc(-c2nnc(N(CCO)c3ccc4[nH]ncc4c3)s2)c1` [Example A-21], in that order: 15 to 30 µM, 15 to 30 µM and below 5.
